Data set [1] is described as follows: Inhibition of mammalian GGTase-1 expressed in Sf9 cells using wildtype His-tagged RAS-CVLL as substrate assessed as inhibition of substrate plasma membrane localisation. It is filed as cell membranes, Mammalia.
Data set [2] can be described thus: Competitive binding of mammalian GGTase-1 expressed in Sf9 cells assessed as inhibition of 3H-GGPP binding to RAS using Ras-CVLL as substrate incubated for 10 mins. Set-up: species or system Mammalia.
Data set [3] has as its system NIH3T3. The data set is described as follows: Antitumor activity against mouse NIH3T3 cells transfected with H-Ras CVLS xenografted nude mouse assessed as inhibition of tumor growth at 70 mg/kg, ip administered once daily relative to control. It is filed as functional. On the set-up: scale not given: the % may be the effect or the level left.
The subject of the next data set is Calu-1. The data set is described as follows: Antitumor activity against human Calu-1 cells transfected with KRAS mutant xenografted nude mouse assessed as inhibition of tumor growth at 70 mg/kg, ip administrated once daily measure for 40 to 80 days relative to control. It is filed as functional. On the set-up: scale not given: the % may be the effect or the level left. The note with it: time 40-80 day.

Data set [4] has as its system NIH3T3. In words: Antitumor activity against mouse NIH3T3 cells transfected with KRAS4B xenografted nude mouse assessed as inhibition of tumor growth at 35 mg/kg, ip administered in the presence of FTI-276 relative to control. It is filed as functional. Set-up: scale not given: the % may be the effect or the level left.
For a further data set, the system named is SW-620. The data set is described as follows: Cytotoxicity against human SW-620 cells harboring KRAS G12V mutant assessed as reduction in cell viability measured after 48 hrs by MTT assay. It is filed as functional.
In a further data set the test system is NCI-H460. The data set is described as follows: Cytotoxicity against human NCI-H460 cells harboring KRAS […] mutant assessed as reduction in cell viability measured after 48 hrs by MTT assay. It is filed as functional, cell-based. The note with it: NCI-H460, 48 h.
In a further data set the test system is MIA PaCa-2. The data set is described as follows: Cytotoxicity against human MIA PaCa-2 cells harboring KRAS G12C mutant assessed as reduction in cell viability measured after 48 hrs by MTT assay. It is filed as functional, cell-based. Conditions: MIA PaCa-2, 48 h.
The test system of the next data set is MDA-MB-231. In words: Cytotoxicity against human MDA-MB-231 cells harboring KRAS G13D mutant assessed as reduction in cell viability measured after 48 hrs by MTT assay. It is filed as functional, cell-based. The note with it: MDA-MB-231, 48 h.
For a further data set, the system named is HCT-116. In words: Cytotoxicity against human HCT-116 cells harboring KRAS G13D mutant assessed as reduction in cell viability measured after 48 hrs by MTT assay. The class given is functional, cell-based. Conditions: HCT-116, 48 h.
In another data set the test system is PANC-1. In words: Cytotoxicity against human PANC-1 cells harboring KRAS G12D mutant assessed as reduction in cell viability measured after 48 hrs by MTT assay. Conditions: PANC-1, 48 h. The class given is functional, cell-based.
In a further data set the test system is HT-29. In words: Antiproliferative activity against human HT-29 cells assessed as reduction in cell growth at 100 uM measured after 7 days relative to control. The class given is functional. Set-up: scale not given: the % may be the effect or the level left. Conditions: time 7 day.
Another data set deals with SK-MES-1. The data set is described as follows: Antitumor activity against human SK-MES-1 HTB-58 cells xenografted in athymic nude mouse assessed as reduction in tumour volume at 10 mg/kg, ip administered once daily measured after 24 days. It is filed as functional. Conditions: time 24 day.
Data set [5] can be described thus: Reduction in KRAS mutant level in tumor of human PANC-1 cells xenografted nude mouse at 40 mg/kg, po administered daily for 10 days by immunoblot analysis relative to control. It is filed as functional. Set-up: scale not given: the % may be the effect or the level left. The note with it: time 10 day.
The subject of a further data set is Rat1. In words: Inhibition of cell growth in rat Rat1 cells transfected with HRAS. The class given is functional, cell-based.
Data set [6] in a line: Reduction in phosphor-ERK mutant level in tumor of human PANC-1 cells xenografted nude mouse at 40 mg/kg, po administered daily for 10 days by immunoblot analysis relative to control. Set-up: scale not given: the % may be the effect or the level left. Conditions: time 10 day. It is filed as functional.
The nature of data set [7]: Toxicity in nude mouse xenografted with human PANC-1 cells assessed as reduction in body weight at 40 mg/kg, po administered daily for 10 days relative to control. The class given is organism-based. On the set-up: scale not given: the % may be the effect or the level left. The note with it: in vivo, 240 h, time 10 day.
Data set [8] concerns A549. The data set is described as follows: Antitumor activity against human A549 cells xenografted in athymic nude mice assessed as inhibition of tumor growth at 50 mg/kg, po administered daily measured after 16 days relative to control. The class given is functional. On the set-up: scale not given: the % may be the effect or the level left. The note with it: time 16 day.

The nature of data set [9]: Reduction in KRAS-GTP mutant level in tumor of human PANC-1 cells xenografted nude mouse at 40 mg/kg, po administered daily for 10 days by immunoblot analysis relative to control. It is filed as functional. On the set-up: scale not given: the % may be the effect or the level left. The note with it: time 10 day.
Data set [10] deals with A549. The data set is described as follows: Antitumor activity against human A549 cells xenografted in athymic nude mouse assessed as reduction in tumour volume at 10 mg/kg, ip administered once daily measured after 24 days relative to control. It is filed as functional. Set-up: scale not given: the % may be the effect or the level left. The note with it: time 24 day.

Structures are written as SMILES.

As for `CSCCc1c(-c2cccnc2)nn(-c2ccc(Cl)c(Cl)c2)c1OCCCC(=O)N[C@@H](Cc1ccccc1)C(N)=O`, in data set [1], the IC50 worked out at 2 µM. Besides, in data set [2], the Ki came to 0.0008 µM.
On to `CC(C)C[C@H](NC(=O)c1ccc(NC[C@@H](N)CS)cc1-c1cccc2ccccc12)C(=O)O`, for which the Activity with NIH3T3 [3] is listed as 40%; in the data set on Calu-1 it was 60%; with NIH3T3 [4] it was 65%.
With `CCCc1c(OCCCCCOc2coc(CO)cc2=O)ccc(Cl)c1Cl`, the IC50 in the data set with SW-620 came out at 37.1 µM; with NCI-H460, 15 µM; in the data set with MIA PaCa-2 it was 10.2 µM; in the data set with MDA-MB-231 it was 7 µM; in the data set with HCT-116 it was 8 µM; in the data set with PANC-1, 17.3 µM.
Turning to `CC(C)=CCC/C(C)=C/CC/C(C)=C/CSc1ccccc1C(=O)O` [SALIRASIB], the Activity in the data set with HT-29 amounted to 85%; with SK-MES-1 it was 0.03 cm3; in data set [5], 50%; in [6], 84%; in data set [7] it was 67%; with A549 [8], 53.7%. Moreover, the figures for the Activity (in data set [9]; with A549 [10]) were 64% and 53.8%, respectively. This compound displayed an EC50 with Rat1 of 7.5 µM.

For the origin of these results see ChEMBL document CHEMBL5149962, “Targeting KRAS mutant cancers by preventing signaling transduction in the MAPK pathway” (Eur J Med Chem, 2021).
